How the values were obtained:
Assay type in all cases: cell-based
PC-3 [1] = assay: cells; conditions: Homo sapiens, PC-3; 2D monolayer, 72 h, Harmony software; no unit in the table, μM; read-out: Estimated EC50 values for cell proliferation, PC-3
Description: (§1) To rule out that cytotoxic and antimitotic effects were misinterpreted as anti-invasive, we tested compounds 4, 5, 6, 19 and 20 for inhibition of proliferation and induction of cell death in a 2D monolayer culture (summarized in Fig 6). […] LNCaP cells were more sensitive, with growth inhibition/cytotoxicity starting at 3 μM. The effects on non-transformed, apoptosis-sensitive Ep156T cells were strongest. Here, cytotoxic effects were typically observed already at 0.3–1 μM. […] We further calculated EC50 values for proliferation, apoptosis and cell death for each compound, using the PerkinElmer Harmony software (method validation shown in S7 Fig). The only assay that produced results consistent with those of the betulin derivatives tested in the 2D cell culture model was the proliferation assay (Table 1).
(§2) Fig 6 Cytotoxicity tests performed in 2D monolayer culture. A) Cell proliferation/cell number, B) programmed cell death (apoptosis), and C) number of dead cells were assessed by conventional assays, combined with high-content microscopy (Operetta). […] Proliferation was measured as the total number of nuclei (= cells), apoptosis as ratio of caspase-3 positive versus all cells, and cell death as ethidium homodimer-2 positive nuclei versus all cells.
(§3) Cells were transferred into CellCarrier 384-well plates (PerkinElmer, Waltham, MA, USA) at a density of 1250 cells/well, using Multidrop dispenser (ThermoFisher Scientific, Waltham, MA, USA). After overnight incubation at 37°C experimental, compounds were added with an ATS Acoustic Transfer System (EDC Biosystems, Fremont, CA, USA). For Ep156T cells the protocol was done in reverse with compounds dispensed before seeding of cells. Fluorescent markers were dispensed in culture medium using ATS system after 72-h compound exposure. Nuclei were stained with cell-permeable Hoechst 33342 (Molecular Probes, Eugene, OR, USA), dead cells with ethidium homodimer-2 (Invitrogen, Carlsbad, CA, USA) and apoptotic cells with NucView caspase-3 detection reagent (Essen Bioscience, Ann Arbor, MI, USA). Cells were imaged with Operetta high-content imager (PerkinElmer, Waltham, MA, USA). Proliferation was measured from the number of nuclei (cells), cell death and apoptosis from positive cells/total cells ratio using Harmony image analysis software (PerkinElmer, Waltham, MA, USA). EC50 values were also assessed with the Harmony software.

LNCaP = assay: Proliferation assay in 2D monolayer culture (number of nuclei, Operetta high-content imager, 72 h); conditions: Homo sapiens, Harmony software, no unit in the table, μM, read-out: Estimated EC50 values for cell proliferation, LNCaP
Description: as §1, §2, §3

PC-3 [2] = assay: Wound healing assay in 2D monolayer culture (IncuCyte); conditions: for wound healing 50% cut-off concentration: 2D monolayer, printed in Fig 4D; for reduction of wound closure: at 300 nM, after 64 hours, 2D
Description: Cells were cultured on ImageLock plates (Essen Bioscience, Ann Arbor, MI, USA) until fully confluent and scratched with a WoundMaker instrument (Essen Bioscience). All detached cells were removed by aspiration and medium supplemented with experimental compounds was added. Wound closure was monitored and quantified with the IncuCyte live-cell imager (Essen Bioscience).
A) Graph showing the transition of PC-3 spheroids from symmetrical acini to irregular invasive structures over 6 days, as measured by general symmetry (roundness %). […] B) Conventional wound healing assay performed in monolayer culture over a period of 64 hours. Wound closure is measured as relative wound density i.e. percentage of original wound area reclaimed by migrating cells. […] (EPS) Click here for additional data file.

EP156T = assay: Proliferation assay in 2D monolayer culture (number of nuclei, Operetta high-content imager, 72 h); conditions: Harmony software, no unit in the table, μM, read-out: Estimated EC50 values for cell proliferation, EP156T
Description: as §1, with “6). A broad range of compound concentrations (1 nM to 30 μM) were used for PC-3, LNCaP and Ep156T cell lines, and analyzed with the PerkinElmer Operetta high-content imager.” for “6).”
as §2, §3

CC(C)[C@@H]1CC[C@]2(C(=O)O)CC[C@]3(C)C(CCC4[C@@]5(C)Cc6cnoc6C(C)(C)C5CC[C@]43C)C12 (some centres unmarked) [Compound 4]
EC50 (PC-3 [1]): 55.9 µM | EC50 (LNCaP): 93.1 µM | wound healing 50% cut-off concentration (PC-3 [2]): ca. 0.3 μM | reduction of wound closure (PC-3 [2]): 50% | EC50 (EP156T): 0.2 µM

C=C(C)[C@@H]1CC[C@]2(C(=O)O)CC[C@]3(C)C(CCC4[C@@]5(C)Cc6cnoc6C(C)(C)C5CC[C@]43C)C12 (some centres unmarked) [Compound 5]
EC50 (PC-3 [1]): 9.5 µM | EC50 (LNCaP): 64.6 µM | concentration required in 2D culture for effects comparable to 3D (PC-3 [2]; 2D wound healing): higher than 1 μM | EC50 (EP156T): 0.22 µM

C=C(C)[C@@H]1CC[C@]2(C(=O)O)CC[C@]3(C)C(CCC4[C@@]5(C)Cc6c[nH]nc6C(C)(C)C5CC[C@]43C)C12 (some centres unmarked) [Compound 6]
EC50 (PC-3 [1]): 90.8 µM | EC50 (LNCaP): 6.4 µM | EC50 (EP156T): 0.21 µM

C=C(C)[C@@H]1CC[C@]2(C(=O)O)CC[C@]3(C)C(CCC4[C@@]5(C)Cc6cccnc6C(C)(C)C5CC[C@]43C)C12 (some centres unmarked) [Compound 19]
EC50 (PC-3 [1]): 86.9 µM | EC50 (LNCaP): 0.9 µM | EC50 (EP156T): 0.18 µM

C=C(C)[C@@H]1CC[C@]2(C(=O)O)CC[C@]3(C)C(CCC4[C@@]5(C)Cc6ncccc6C(C)(C)C5CC[C@]43C)C12 (some centres unmarked) [Compound 20]
EC50 (PC-3 [1]): 66.9 µM | EC50 (LNCaP): 132 µM | wound healing 50% cut-off concentration (PC-3 [2]): ca. 0.3 μM | reduction of wound closure (PC-3 [2]): 50% | EC50 (EP156T): 0.19 µM

CC(=O)O[C@H]1C(=O)[C@@]2(C)[C@H]([C@H](OC(=O)c3ccccc3)[C@]3(O)C[C@H](OC(=O)[C@H](O)[C@@H](NC(=O)c4ccccc4)c4ccccc4)C(C)=C1C3(C)C)[C@]1(OC(C)=O)CO[C@@H]1C[C@@H]2O [Paclitaxel, paclitaxel, reference compound]
EC50 (PC-3 [1]): 0.0012 µM | EC50 (LNCaP): 0.0006 µM | EC50 (EP156T): 0.0008 µM

— article PMC4428838, “Optimization of Invasion-Specific Effects of Betulin Derivatives on Prostate Cancer Cells through Lead Development” (PLoS ONE, 2015)
